Laboratory results taken from ChEMBL document CHEMBL3286257, “Development of second generation EP2 antagonists with high selectivity” (Eur J Med Chem, 2014).
In brackets after ≈: the same amount, converted by molar mass.

Target: Prostaglandin E2 receptor EP2 subtype (Homo sapiens) (UniProt P43116)
Assay: Antagonist activity at EP2 receptor (unknown origin) expressed in rat C6 cells assessed as inhibition of PGE2-induced response
Assay type: cell-based
Settings: not given

Sequence of Prostaglandin E2 receptor EP2 subtype (Homo sapiens) (P43116 whole entry): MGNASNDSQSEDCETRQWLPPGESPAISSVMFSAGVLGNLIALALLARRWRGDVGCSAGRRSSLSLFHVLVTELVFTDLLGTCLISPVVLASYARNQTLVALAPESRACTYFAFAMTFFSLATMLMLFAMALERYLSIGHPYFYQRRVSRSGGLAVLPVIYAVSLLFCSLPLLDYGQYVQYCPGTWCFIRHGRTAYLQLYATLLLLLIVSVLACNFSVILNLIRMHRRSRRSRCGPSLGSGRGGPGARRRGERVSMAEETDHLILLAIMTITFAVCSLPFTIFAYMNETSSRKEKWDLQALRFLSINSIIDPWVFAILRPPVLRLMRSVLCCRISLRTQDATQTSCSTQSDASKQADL

Row | Compound | Kb [µM]
1 | Cc1cc2ccccc2n1CCNC(=O)c1ccc(N2CCOCC2)cc1 | 0.0096
2 | CCN(CC)c1ccc(C(=O)NCCc2c(C)[nH]c3ccccc23)cc1 | 0.0069
3 | Cc1cc2ccccc2n1CCNC(=O)c1ccc(N2CCOCC2)c(F)c1 | 0.0257
4 | CCN(CC)c1ccc(C(=O)NCCn2c(C)cc3ccccc32)cc1 | 0.0027
5 | Cc1cc2ccccc2n1CCNC(=O)c1ccc(N2CCC(C(=O)O)CC2)cc1 | 0.0897

Target: Prostaglandin E2 receptor EP4 subtype (Homo sapiens) (UniProt P35408)
Sequence (P35408 whole entry): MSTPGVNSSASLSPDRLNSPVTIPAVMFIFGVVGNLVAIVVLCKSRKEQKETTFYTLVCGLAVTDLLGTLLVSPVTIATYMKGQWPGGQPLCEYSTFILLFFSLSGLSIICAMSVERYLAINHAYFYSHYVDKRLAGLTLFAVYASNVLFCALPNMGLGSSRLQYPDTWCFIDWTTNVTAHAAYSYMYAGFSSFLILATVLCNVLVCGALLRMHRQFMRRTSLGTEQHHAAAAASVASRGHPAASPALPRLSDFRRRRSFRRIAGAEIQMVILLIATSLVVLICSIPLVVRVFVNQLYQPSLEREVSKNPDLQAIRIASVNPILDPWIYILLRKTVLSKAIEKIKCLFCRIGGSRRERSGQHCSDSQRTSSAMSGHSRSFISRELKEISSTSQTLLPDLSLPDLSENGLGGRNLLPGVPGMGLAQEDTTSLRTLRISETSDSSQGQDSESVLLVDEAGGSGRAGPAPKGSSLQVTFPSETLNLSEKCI
Assay: Antagonist activity at EP4 receptor (unknown origin) expressed in rat C6 cells assessed as inhibition of PGE2-induced response
Assay type: cell-based
Settings: not given

Row | Compound | Kb [µM]
6 | Cc1cc2ccccc2n1CCNC(=O)c1ccc(N2CCOCC2)cc1 | 21
7 | CCN(CC)c1ccc(C(=O)NCCc2c(C)[nH]c3ccccc23)cc1 | 48
8 | Cc1cc2ccccc2n1CCNC(=O)c1ccc(N2CCOCC2)c(F)c1 | 14.5
9 | CCN(CC)c1ccc(C(=O)NCCn2c(C)cc3ccccc32)cc1 | 31.3

Species: Homo sapiens
Assay: Selectivity index, ratio of KB for EP4 receptor (unknown origin) to KB for EP2 receptor (unknown origin)
Settings: not given

Row | Compound | Ratio
10 | Cc1cc2ccccc2n1CCNC(=O)c1ccc(N2CCOCC2)cc1 | 2190
11 | CCN(CC)c1ccc(C(=O)NCCc2c(C)[nH]c3ccccc23)cc1 | 6940
12 | Cc1cc2ccccc2n1CCNC(=O)c1ccc(N2CCOCC2)c(F)c1 | 565
13 | CCN(CC)c1ccc(C(=O)NCCn2c(C)cc3ccccc32)cc1 | 11600

Target: T1, Prostaglandin D2 receptor (Homo sapiens) (UniProt Q13258)
T1 sequence (whole entry): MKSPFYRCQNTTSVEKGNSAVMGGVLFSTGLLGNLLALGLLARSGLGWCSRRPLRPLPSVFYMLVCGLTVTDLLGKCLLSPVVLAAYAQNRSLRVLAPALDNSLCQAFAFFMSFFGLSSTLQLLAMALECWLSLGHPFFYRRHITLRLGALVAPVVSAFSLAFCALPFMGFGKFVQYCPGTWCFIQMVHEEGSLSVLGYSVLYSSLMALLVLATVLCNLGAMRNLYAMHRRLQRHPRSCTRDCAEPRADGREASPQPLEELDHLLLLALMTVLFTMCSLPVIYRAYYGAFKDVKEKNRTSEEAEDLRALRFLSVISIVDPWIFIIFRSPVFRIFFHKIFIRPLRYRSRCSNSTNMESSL
Assay: Antagonist activity at DP1 receptor (unknown origin) expressed in rat C6 cells by TR-FRET assay
Assay type: cell-based
Settings: not given

Row | Compound | Kb [µM]
14 | Cc1cc2ccccc2n1CCNC(=O)c1ccc(N2CCOCC2)cc1 | 5.21
15 | CCN(CC)c1ccc(C(=O)NCCc2c(C)[nH]c3ccccc23)cc1 | 9.48
16 | Cc1cc2ccccc2n1CCNC(=O)c1ccc(N2CCOCC2)c(F)c1 | 2.2
17 | CCN(CC)c1ccc(C(=O)NCCn2c(C)cc3ccccc32)cc1 | 3.19
18 | Cc1cc2ccccc2n1CCNC(=O)c1ccc(-c2nnn[nH]2)cc1 | 0.66

Species: Homo sapiens
Assay: Selectivity index, ratio of KB for DP1 receptor (unknown origin) to KB for EP2 receptor (unknown origin)
Settings: not given

Row | Compound | Ratio
19 | Cc1cc2ccccc2n1CCNC(=O)c1ccc(N2CCOCC2)cc1 | 533
20 | CCN(CC)c1ccc(C(=O)NCCc2c(C)[nH]c3ccccc23)cc1 | 1370
21 | Cc1cc2ccccc2n1CCNC(=O)c1ccc(N2CCOCC2)c(F)c1 | 85
22 | CCN(CC)c1ccc(C(=O)NCCn2c(C)cc3ccccc32)cc1 | 1220

Target: Prostacyclin receptor (Homo sapiens) (UniProt P43119)
Sequence (P43119 whole entry): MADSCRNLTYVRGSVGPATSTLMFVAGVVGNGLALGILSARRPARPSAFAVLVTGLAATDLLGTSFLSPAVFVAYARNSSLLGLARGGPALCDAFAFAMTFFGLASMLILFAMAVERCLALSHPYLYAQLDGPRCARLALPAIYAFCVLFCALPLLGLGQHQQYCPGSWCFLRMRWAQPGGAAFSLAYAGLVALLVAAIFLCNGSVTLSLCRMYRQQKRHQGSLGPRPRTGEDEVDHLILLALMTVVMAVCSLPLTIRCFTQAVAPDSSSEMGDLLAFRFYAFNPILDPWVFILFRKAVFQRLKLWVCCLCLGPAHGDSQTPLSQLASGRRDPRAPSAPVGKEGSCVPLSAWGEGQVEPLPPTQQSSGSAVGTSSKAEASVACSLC
Assay: Antagonist activity at IP receptor (unknown origin) expressed in rat C6 cells by TR-FRET assay
Assay type: cell-based
Settings: not given

Row | Compound | Kb [µM]
23 | Cc1cc2ccccc2n1CCNC(=O)c1ccc(N2CCOCC2)cc1 | 1.98
24 | Cc1cc2ccccc2n1CCNC(=O)c1ccc(N2CCOCC2)c(F)c1 | 5.6
25 | CCN(CC)c1ccc(C(=O)NCCn2c(C)cc3ccccc32)cc1 | 8

Species: Homo sapiens
Assay: Selectivity index, ratio of KB for IP receptor (unknown origin) to KB for EP2 receptor (unknown origin)
Settings: not given

Row | Compound | Ratio
26 | Cc1cc2ccccc2n1CCNC(=O)c1ccc(N2CCOCC2)cc1 | 206
27 | Cc1cc2ccccc2n1CCNC(=O)c1ccc(N2CCOCC2)c(F)c1 | 217
28 | CCN(CC)c1ccc(C(=O)NCCn2c(C)cc3ccccc32)cc1 | 2960

System: not listed separately
Assay: (§1) Cytotoxicity against rat C6 cells
Assay type: cell-based
Settings: C6 cells

Row | Compound | CC50 [µM]
29 | CCN(CC)c1ccc(C(=O)NCCc2c(C)[nH]c3ccccc23)cc1 | > 500
30 | Cc1cc2ccccc2n1CCNC(=O)c1ccc(N2CCOCC2)c(F)c1 | > 500
31 | Cc1cc2ccccc2n1CCNC(=O)c1ccc(-c2nnn[nH]2)cc1 | > 300

System: C6
Assay: as §1
Assay type: cell-based
Settings: c6

Row | Compound | CC50 [µM]
32 | Cc1cc2ccccc2n1CCNC(=O)c1ccc(N2CCOCC2)cc1 | 289
33 | CCN(CC)c1ccc(C(=O)NCCn2c(C)cc3ccccc32)cc1 | 320

System: EP2 receptor
Assay: Therapeutic index, ratio of CC50 for rat C6 cells to KB for EP2 receptor (unknown origin)
Assay type: cell-based
Settings: read-out: TI

Row | Compound | selectivity ratio
34 | Cc1cc2ccccc2n1CCNC(=O)c1ccc(N2CCOCC2)cc1 | 30100
35 | CCN(CC)c1ccc(C(=O)NCCc2c(C)[nH]c3ccccc23)cc1 | > 72500
36 | Cc1cc2ccccc2n1CCNC(=O)c1ccc(N2CCOCC2)c(F)c1 | > 19400
37 | CCN(CC)c1ccc(C(=O)NCCn2c(C)cc3ccccc32)cc1 | 119000

Target: Prostaglandin E2 receptor EP2 subtype (Homo sapiens) (UniProt P43116)
Assay: Competitive antagonist activity at human EP2 receptor assessed as inhibition of PGE2-induced response
Settings: not given

Row | Compound | Kb [µM]
38 | Cc1cc2ccccc2n1CCNC(=O)c1ccc(N2CCOCC2)cc1 | 0.0161
39 | CCN(CC)c1ccc(C(=O)NCCc2c(C)[nH]c3ccccc23)cc1 | 0.0163
40 | CCN(CC)c1ccc(C(=O)NCCn2c(C)cc3ccccc32)cc1 | 0.0175
41 | Cc1cc2ccccc2n1CCNC(=O)c1ccc(N2CCC(C(=O)O)CC2)cc1 | 0.097
42 | Cc1cc2ccccc2n1CCNC(=O)c1ccc(-c2nnn[nH]2)cc1 | 0.0164

System: not listed separately
Assay: Metabolic stability of the compound in human liver microsomes assessed as compound remaining at 10 uM after 15 mins
Assay type: ADME
Settings: read-out: Stability

Row | Compound | remaining at […], 10 µM [%]
43 | Cc1cc2ccccc2n1CCNC(=O)c1ccc(N2CCOCC2)cc1 | 58
44 | CCN(CC)c1ccc(C(=O)NCCc2c(C)[nH]c3ccccc23)cc1 | 40
45 | CCN(CC)c1ccc(C(=O)NCCn2c(C)cc3ccccc32)cc1 | 19
46 | Cc1cc2ccccc2n1CCNC(=O)c1ccc(N2CCC(C(=O)O)CC2)cc1 | 97
47 | Cc1cc2ccccc2n1CCNC(=O)c1ccc(-c2nnn[nH]2)cc1 | 96

System: not listed separately
Assay: Metabolic stability of the compound in human liver microsomes assessed as compound remaining at 10 uM after 30 mins
Assay type: ADME
Settings: read-out: Stability

Row | Compound | remaining at 0.5 h, 10 µM [%]
48 | Cc1cc2ccccc2n1CCNC(=O)c1ccc(N2CCOCC2)cc1 | 38
49 | CCN(CC)c1ccc(C(=O)NCCc2c(C)[nH]c3ccccc23)cc1 | 20
50 | CCN(CC)c1ccc(C(=O)NCCn2c(C)cc3ccccc32)cc1 | 9
51 | Cc1cc2ccccc2n1CCNC(=O)c1ccc(N2CCC(C(=O)O)CC2)cc1 | 97
52 | Cc1cc2ccccc2n1CCNC(=O)c1ccc(-c2nnn[nH]2)cc1 | 87

System: not listed separately
Assay: Metabolic stability of the compound in human liver microsomes assessed as compound remaining at 10 uM after 60 mins
Assay type: ADME
Settings: read-out: Stability

Row | Compound | remaining at 1 h, 10 µM [%]
53 | Cc1cc2ccccc2n1CCNC(=O)c1ccc(N2CCOCC2)cc1 | 22
54 | CCN(CC)c1ccc(C(=O)NCCc2c(C)[nH]c3ccccc23)cc1 | 5
55 | CCN(CC)c1ccc(C(=O)NCCn2c(C)cc3ccccc32)cc1 | 4
56 | Cc1cc2ccccc2n1CCNC(=O)c1ccc(N2CCC(C(=O)O)CC2)cc1 | 95
57 | Cc1cc2ccccc2n1CCNC(=O)c1ccc(-c2nnn[nH]2)cc1 | 73

System: not listed separately
Assay: Metabolic stability of the compound in mouse liver microsomes assessed as compound remaining at 10 uM after 15 mins
Assay type: ADME
Settings: read-out: Stability

Row | Compound | remaining at […], 10 µM [%]
58 | Cc1cc2ccccc2n1CCNC(=O)c1ccc(N2CCOCC2)cc1 | 8
59 | CCN(CC)c1ccc(C(=O)NCCc2c(C)[nH]c3ccccc23)cc1 | 34
60 | CCN(CC)c1ccc(C(=O)NCCn2c(C)cc3ccccc32)cc1 | < 14
61 | Cc1cc2ccccc2n1CCNC(=O)c1ccc(N2CCC(C(=O)O)CC2)cc1 | 97
62 | Cc1cc2ccccc2n1CCNC(=O)c1ccc(-c2nnn[nH]2)cc1 | 85

System: not listed separately
Assay: Metabolic stability of the compound in mouse liver microsomes assessed as compound remaining at 10 uM after 30 mins
Assay type: ADME
Settings: read-out: Stability

Row | Compound | remaining at 0.5 h, 10 µM [%]
63 | Cc1cc2ccccc2n1CCNC(=O)c1ccc(N2CCOCC2)cc1 | 5
64 | CCN(CC)c1ccc(C(=O)NCCc2c(C)[nH]c3ccccc23)cc1 | 19
65 | CCN(CC)c1ccc(C(=O)NCCn2c(C)cc3ccccc32)cc1 | 9
66 | Cc1cc2ccccc2n1CCNC(=O)c1ccc(N2CCC(C(=O)O)CC2)cc1 | 92
67 | Cc1cc2ccccc2n1CCNC(=O)c1ccc(-c2nnn[nH]2)cc1 | 75

System: not listed separately
Assay: Metabolic stability of the compound in mouse liver microsomes assessed as compound remaining at 10 uM after 60 mins
Assay type: ADME
Settings: read-out: Stability

Row | Compound | remaining at 1 h, 10 µM [%]
68 | Cc1cc2ccccc2n1CCNC(=O)c1ccc(N2CCOCC2)cc1 | 0
69 | CCN(CC)c1ccc(C(=O)NCCc2c(C)[nH]c3ccccc23)cc1 | 5
70 | CCN(CC)c1ccc(C(=O)NCCn2c(C)cc3ccccc32)cc1 | 3
71 | Cc1cc2ccccc2n1CCNC(=O)c1ccc(N2CCC(C(=O)O)CC2)cc1 | 86
72 | Cc1cc2ccccc2n1CCNC(=O)c1ccc(-c2nnn[nH]2)cc1 | 57

System: not listed separately
Assay: Aqueous solubility of the compound by nephelometry method
Assay type: physicochemical
Settings: buffer

Row | Compound | solubility kinetic [µM]
73 | Cc1cc2ccccc2n1CCNC(=O)c1ccc(N2CCOCC2)cc1 | 67 (≈ 24.4 µg/mL)
74 | CCN(CC)c1ccc(C(=O)NCCc2c(C)[nH]c3ccccc23)cc1 | < 25
75 | CCN(CC)c1ccc(C(=O)NCCn2c(C)cc3ccccc32)cc1 | < 25
76 | Cc1cc2ccccc2n1CCNC(=O)c1ccc(N2CCC(C(=O)O)CC2)cc1 | > 750
77 | Cc1cc2ccccc2n1CCNC(=O)c1ccc(-c2nnn[nH]2)cc1 | 257 (≈ 89 µg/mL)

System: not listed separately
Assay: Cmax in C57Bl/6 mouse at 5 mg/kg, ip
Assay type: ADME, organism-based
Design: dose 5 mg/kg, route intraperitoneal
Settings: in vivo

Row | Compound | Cmax [ng/mL]
78 | Cc1cc2ccccc2n1CCNC(=O)c1ccc(-c2nnn[nH]2)cc1 | 2040

System: not listed separately
Assay: AUClast in C57Bl/6 mouse at 5 mg/kg, ip
Assay type: ADME, organism-based
Design: time 0 - last, dose 5 mg/kg, route intraperitoneal
Settings: plasma

Row | Compound | AUC(0-t) [ng·h/mL]
79 | Cc1cc2ccccc2n1CCNC(=O)c1ccc(-c2nnn[nH]2)cc1 | 1580

System: not listed separately
Assay: AUC (infinity) in C57Bl/6 mouse at 5 mg/kg, ip
Assay type: ADME, organism-based
Design: time infinity, dose 5 mg/kg, route intraperitoneal
Settings: plasma

Row | Compound | AUC(0-inf) [ng·h/mL]
80 | Cc1cc2ccccc2n1CCNC(=O)c1ccc(-c2nnn[nH]2)cc1 | 1600

System: not listed separately
Assay: Terminal half life in C57Bl/6 mouse at 5 mg/kg, ip
Assay type: ADME, organism-based
Design: dose 5 mg/kg, route intraperitoneal
Settings: in vivo, read-out: beta t1/2 (converted)

Row | Compound | half-life [min]
81 | Cc1cc2ccccc2n1CCNC(=O)c1ccc(-c2nnn[nH]2)cc1 | 18

System: not listed separately
Assay: Cmax in C57Bl/6 mouse at 10 mg/kg, po
Assay type: ADME, organism-based
Design: dose 10 mg/kg, route oral
Settings: in vivo

Row | Compound | Cmax [nM]
82 | Cc1cc2ccccc2n1CCNC(=O)c1ccc(-c2nnn[nH]2)cc1 | 134
